Experimental data: US9757375B2, “Compounds that inhibit human DNA ligases and methods of treating cancer” (University of Maryland, Baltimore, priority 2007, dated 2017)
Read-outs that look alike come from different tables or passages of the source.

Experiments:
[1] = target: T1, human DNA ligase III (Homo sapiens, UniProt P49916); assay: High-throughput fluorescence-based DNA joining (ligation) assay; assay type: biochemical
T1 sequence (P49916 1-862 isoform P49916-4): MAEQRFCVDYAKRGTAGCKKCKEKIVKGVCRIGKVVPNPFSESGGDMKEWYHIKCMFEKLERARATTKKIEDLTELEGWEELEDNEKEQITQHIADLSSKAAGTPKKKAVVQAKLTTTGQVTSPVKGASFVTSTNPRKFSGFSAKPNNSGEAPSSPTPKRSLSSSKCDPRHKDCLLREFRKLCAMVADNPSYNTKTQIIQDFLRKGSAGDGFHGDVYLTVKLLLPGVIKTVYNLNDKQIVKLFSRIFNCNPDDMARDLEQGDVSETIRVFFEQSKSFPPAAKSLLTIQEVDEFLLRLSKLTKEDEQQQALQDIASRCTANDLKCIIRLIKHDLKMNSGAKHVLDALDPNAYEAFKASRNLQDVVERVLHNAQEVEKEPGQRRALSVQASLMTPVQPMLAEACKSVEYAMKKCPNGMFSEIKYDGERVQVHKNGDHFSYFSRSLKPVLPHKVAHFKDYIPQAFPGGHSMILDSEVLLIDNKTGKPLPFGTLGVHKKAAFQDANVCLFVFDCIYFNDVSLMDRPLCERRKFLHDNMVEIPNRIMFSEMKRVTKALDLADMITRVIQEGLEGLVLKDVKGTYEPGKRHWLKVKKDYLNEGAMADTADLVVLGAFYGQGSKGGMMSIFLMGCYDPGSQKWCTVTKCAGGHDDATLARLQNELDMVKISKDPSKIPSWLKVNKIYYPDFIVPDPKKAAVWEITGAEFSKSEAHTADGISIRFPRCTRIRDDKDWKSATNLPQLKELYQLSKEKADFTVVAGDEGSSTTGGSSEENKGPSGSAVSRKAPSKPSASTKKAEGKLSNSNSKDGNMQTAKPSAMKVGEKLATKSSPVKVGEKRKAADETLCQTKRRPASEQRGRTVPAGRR
Description: (§1) The method for screening compounds comprises testing the compound for the ability to inhibit human DNA ligases I, III and IV with a high throughput fluorescence-based ligation assay. In this assay, phosphodiester bond formation covalently links together two oligonucleotides, one of which is a fluorescent donor AF488 that is 11 nucleotides from the 3′ terminus and the other contains a fluorescence acceptor and quencher, BHQ1 that is 15 nucleotides from the 5′ terminus. When these oligonucleotides are present in separate duplexes and in the same nicked or intact duplex, there is no significant quenching of fluorescence because the donor and acceptor are too far apart. As single-strands neither the AF488 oligonucleotide nor the BHQ1 oligonucleotides have significant secondary structure. However, when these oligonucleotides are ligated together, the resultant single strand forms a stable hairpin structure, in which the AF488 and BHQ1 groups are very close together, resulting in efficient intra-molecular quenching of fluorescence. Thus, in the DNA joining assay, the DNA substrate is denatured after incubation with the DNA ligase and then renatured in the presence of a 20-fold excess of an oligonucleotide that is identical to the ligated strand containing the fluorescent door and acceptor except that it lacks these modifications. Using this assay, DNA joining, which results in reduced fluorescence at 518 nm, can be measured rapidly, quantitatively and with high-throughput using a fluorescence plate reader.
(§2) Applicants developed a novel high throughput fluorescence-based ligation assay by modifying the sequence of the oligos to optimize hairpin formation by the single strand ligated product of the high throughput fluorescence-based ligation assay of Chen et al (22). […] Compound stock solutions, which were 10 mM in 0.5% DMSO, were diluted in 0.5% DMSO. Human DNA ligases I and III were assayed with a nicked DNA substrate whereas as the substrate for human DNA ligase IV was two oligonucleotide duplexes with short complementary single strand ends.

[2] = target: human DNA ligase IV (Homo sapiens, UniProt P49917); assay: as above; assay type: biochemical
Description: as §1, §2

[3] = target: T2, T4 DNA ligase (Enterobacteria phage T4, UniProt P00970); assay: High-throughput fluorescence-based DNA joining assay, non-specific inhibitor control; assay type: biochemical, bacteriophage T4; conditions: 100 μM; read-out: In vitro % inhib T4 100
T2 construct: purchased NEB
T2 sequence (P00970 1-487): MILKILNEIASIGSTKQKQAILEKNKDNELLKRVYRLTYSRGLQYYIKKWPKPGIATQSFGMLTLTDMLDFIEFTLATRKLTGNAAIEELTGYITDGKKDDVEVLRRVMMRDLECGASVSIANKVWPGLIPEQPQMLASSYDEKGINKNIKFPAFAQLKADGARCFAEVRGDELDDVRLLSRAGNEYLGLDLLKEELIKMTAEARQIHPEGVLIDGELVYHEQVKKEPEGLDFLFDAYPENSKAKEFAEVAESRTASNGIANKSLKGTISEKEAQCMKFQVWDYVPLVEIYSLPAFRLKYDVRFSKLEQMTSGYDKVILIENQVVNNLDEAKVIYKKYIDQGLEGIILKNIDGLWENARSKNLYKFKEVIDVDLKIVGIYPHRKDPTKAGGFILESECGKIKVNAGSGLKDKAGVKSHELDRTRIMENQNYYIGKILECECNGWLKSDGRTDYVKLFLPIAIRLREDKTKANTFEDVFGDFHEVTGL
Protocol: (§3) Candidate ligase inhibitors identified by CADD were assayed for their ability to inhibit hLigI and T4 DNA ligase using a high-throughput, fluorescence energy transfer-based DNA joining assay (22). Duplicate reactions (30 μL) containing 10 pmol of nicked DNA substrate and either 0.25 pmol of hLigI or 10 units of T4 DNA ligase were incubated in the presence or absence of 100 μmol/L of the putative inhibitor. DNA binding by the candidate DNA ligase inhibitors was measured by displacement of ethidium bromide from DNA as previously described (30).
In addition, to identify compounds that may be non-specific inhibitors of DNA joining, the 192 compounds were also assayed for their ability to inhibit bacteriophage T4 DNA ligase, an enzyme that utilizes the same reaction mechanism as hLigI, has similar adenylation and OB-fold domains but lacks a DBD domain. (6) Although this is also an ATP-dependent DNA ligase, it lacks the domain containing the binding pocket targeted by the in silico screen. Compounds that inhibited T4 DNA ligase were eliminated as non-specific inhibitors that most likely bind to the DNA.

[4] = test system: MCF7, HCT116, HeLa, and MCF10A cells; assay: Survival assay on cell panel (FIG. 9); assay type: cell-based, human; conditions: Homo sapiens; cell line not stated
Description: FIG. 9. […] A, effect of L67 (left) and L189 (right) on the survival of MCF7 (Δ), HCT116 (□), HeLa (⋄), and MCF10A (upsidedown triangle) cells. B, normal breast epithelial MCF10A cells (open symbols) and breast cancer MCF7 cells (filled symbols) in the absence (circles) or presence of 3 μmol/L of L67 (squares) were exposed to increasing concentrations of MMS (left). Normal breast epithelial MCF10A cells (open symbols) and colon cancer HCT116 cells (filled symbols) in the absence (circles) or presence of 20 μmol/L of L189 (squares) were exposed to increasing doses of ionizing radiation (right). C, hLigI (I), hLigIIIα (III), and hLigIV (IV) were detected in extracts (400 μg) of the indicated cell lines by immunoblotting. To control for extract loading β-actin was also detected by immunoblotting.
For survival assays, cells were plated in 6 well plates and grown either in the absence or presence of ligase inhibitors. Where indicated, either MMS (0-50 μM) was added to the medium or the cells were irradiated in a Cs-137 irradiator (0-2.5 Gy). After two weeks, colonies were stained with crystal violet (Sigma) and then counted.

[5] = target: T3, hLigI (Homo sapiens, UniProt P18858); assay: High-throughput fluorescence-based DNA joining (ligation) assay; assay type: biochemical
T3 construct: made in house
Protocol: as §3, §1, §2

[6] = test system: HCT116 cells; assay: Screen for potentiation of DNA damaging agents (MMS, camptothecin, cis-platinum, 3 aminobenzamide, ionizing radiation); assay type: cell-based, human; conditions: ionizing radiation
Description: (§4) The 192 human DNA ligase inhibitors were screened in parallel for effects on proliferation and the ability to potentiate the effects of several DNA damaging agents using two cell human lines, a colon cancer line HCT116 and a normal breast epithelial cell line MCF10A using a Biomek FX Laboratory Automation Workstation as described (23). The DNA damaging agents used, methyl methanesulfonate (MMS), camptothecin, cis-platinum, 3 aminobenzamide and ionizing radiation, are representatives of classes of agents used to treat cancer. Briefly, HCT116 and MCF10A cells were plated in 96 well plates such that the cultures were about 80% confluent after 5 days incubation. Compounds were added to the cultures at either 15 μM or 50 μM 1 day after plating. After incubation for 3 days, cell lysed in a solution containing 1.2% Igepal CA-630 and SYBR green that stains DNA (1:1000, Molecular Probes, Eugene, Oreg.). Subsequently, fluorescence was measured per well. The studies with DNA damaging agents were performed as follows. […] For ionizing radiation, cells were pre-incubated with the compounds at 50 μM for 1 hour prior to exposure to 2 gray of ionizing radiation. Cultures were incubated for 3 days and then treated as above.

[7] = test system: MCF10A cells; assay: as above; assay type: cell-based, human; conditions: ionizing radiation
Description: The 192 human DNA ligase inhibitors were screened in parallel for effects on proliferation and the ability to potentiate the effects of several DNA damaging agents using two cell human lines, a colon cancer line HCT116 and a normal breast epithelial cell line MCF10A using a Biomek FX Laboratory Automation Workstation as described (23). The DNA damaging agents used, methyl methanesulfonate (MMS), camptothecin, cis-platinum, 3 aminobenzamide and ionizing radiation, are representatives of classes of agents used to treat cancer. Briefly, HCT116 and MCF10A cells were plated in 96 well plates such that the cultures were about 80% confluent after 5 days incubation. Compounds were added to the cultures at either 15 μM or 50 μM 1 day after plating. After incubation for 3 days, cell lysed in a solution containing 1.2% Igepal CA-630 and SYBR green that stains DNA (1:1000, Molecular Probes, Eugene, Oreg.). Subsequently, fluorescence was measured per well. The studies with DNA damaging agents were performed as follows. […] Cultures were incubated for 3 days and then treated as above.

[8] = test system: HCT116 and MCF10A cells; assay: Screen for potentiation of DNA damaging agents, cell line not stated with the result; assay type: cell-based, human; conditions: 50 μM, 2 gray of ionizing radiation
Description: as §4

[9] = test system: HCT116 cells; assay: MTT cell growth assay; assay type: cell-based, human; conditions: cell growth, compound alone; read-out: IC50 (μM) HCT116
Protocol: The activity of hits from the initial screen was further validated using the MTT assay. Briefly, MCF10A and HCT116 cells were seeded in 96 well plates at 300 and 1200 cells per well, respectively, and allowed to adhere overnight. The following day, serial dilutions of compounds in media were added to the cells in a final volume 200 μl. After incubation for 5 days, MTT reagent (3-(4,5-dimthylthiazol-2-yl)-2,5-diphenyltatrazolium) was added and incubation was continued for 4 h. Formazan crystals generated by reduction of the MTT reagent in mitochondria were solubilized with isopropanol prior to the measurement of absorbance at 560 nm wavelength in a plate reader.
After incubation for 5 days, cell growth was measured by the MTT assay (16).

T3 sequence (P18858 whole entry): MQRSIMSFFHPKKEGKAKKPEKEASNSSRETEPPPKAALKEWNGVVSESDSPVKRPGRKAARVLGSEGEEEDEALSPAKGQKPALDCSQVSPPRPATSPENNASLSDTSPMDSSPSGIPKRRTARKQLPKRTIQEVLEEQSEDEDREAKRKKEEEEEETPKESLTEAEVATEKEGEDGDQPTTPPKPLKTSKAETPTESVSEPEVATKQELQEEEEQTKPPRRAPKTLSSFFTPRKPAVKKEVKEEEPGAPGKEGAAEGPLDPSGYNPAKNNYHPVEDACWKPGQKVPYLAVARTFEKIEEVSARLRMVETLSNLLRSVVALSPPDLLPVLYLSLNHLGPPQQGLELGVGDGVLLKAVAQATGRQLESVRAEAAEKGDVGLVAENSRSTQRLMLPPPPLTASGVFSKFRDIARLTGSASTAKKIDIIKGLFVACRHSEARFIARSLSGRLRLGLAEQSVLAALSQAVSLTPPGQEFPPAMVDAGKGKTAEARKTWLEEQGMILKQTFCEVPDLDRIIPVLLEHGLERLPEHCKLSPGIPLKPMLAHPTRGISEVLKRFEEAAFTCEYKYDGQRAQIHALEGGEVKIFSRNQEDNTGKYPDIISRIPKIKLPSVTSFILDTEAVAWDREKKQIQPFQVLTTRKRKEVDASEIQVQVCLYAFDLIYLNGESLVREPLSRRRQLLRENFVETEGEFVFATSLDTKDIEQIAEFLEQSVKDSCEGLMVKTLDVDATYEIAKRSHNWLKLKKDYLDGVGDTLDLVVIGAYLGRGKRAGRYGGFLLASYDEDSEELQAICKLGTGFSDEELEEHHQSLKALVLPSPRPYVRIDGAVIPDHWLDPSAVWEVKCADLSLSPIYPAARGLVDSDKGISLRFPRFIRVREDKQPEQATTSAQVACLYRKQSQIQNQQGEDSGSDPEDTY
Sequence of human DNA ligase IV (P49917 whole entry): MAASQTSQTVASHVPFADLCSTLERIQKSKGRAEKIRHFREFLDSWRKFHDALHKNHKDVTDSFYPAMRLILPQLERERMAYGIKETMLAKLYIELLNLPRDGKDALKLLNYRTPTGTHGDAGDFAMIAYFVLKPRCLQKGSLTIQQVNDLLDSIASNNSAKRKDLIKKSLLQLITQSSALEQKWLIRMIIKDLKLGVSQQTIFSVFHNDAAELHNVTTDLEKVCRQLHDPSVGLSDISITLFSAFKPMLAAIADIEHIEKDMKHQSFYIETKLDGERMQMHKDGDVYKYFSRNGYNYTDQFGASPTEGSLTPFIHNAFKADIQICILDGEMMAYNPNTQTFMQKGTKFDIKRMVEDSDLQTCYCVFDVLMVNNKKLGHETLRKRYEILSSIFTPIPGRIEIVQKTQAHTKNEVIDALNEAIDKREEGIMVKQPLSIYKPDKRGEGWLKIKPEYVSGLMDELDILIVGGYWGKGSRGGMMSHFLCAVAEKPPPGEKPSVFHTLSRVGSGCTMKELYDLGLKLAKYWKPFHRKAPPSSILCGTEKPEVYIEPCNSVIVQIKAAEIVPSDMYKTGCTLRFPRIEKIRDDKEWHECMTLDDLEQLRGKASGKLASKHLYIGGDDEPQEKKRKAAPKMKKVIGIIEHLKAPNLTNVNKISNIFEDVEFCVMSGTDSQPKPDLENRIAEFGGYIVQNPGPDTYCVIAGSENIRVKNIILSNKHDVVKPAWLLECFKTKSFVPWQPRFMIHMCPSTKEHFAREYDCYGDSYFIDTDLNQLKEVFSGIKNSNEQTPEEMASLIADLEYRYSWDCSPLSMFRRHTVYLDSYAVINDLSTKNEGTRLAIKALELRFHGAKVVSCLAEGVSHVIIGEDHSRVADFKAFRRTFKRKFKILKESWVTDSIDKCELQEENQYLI
Sequence of human DNA ligase IV (Q13426 whole entry partner): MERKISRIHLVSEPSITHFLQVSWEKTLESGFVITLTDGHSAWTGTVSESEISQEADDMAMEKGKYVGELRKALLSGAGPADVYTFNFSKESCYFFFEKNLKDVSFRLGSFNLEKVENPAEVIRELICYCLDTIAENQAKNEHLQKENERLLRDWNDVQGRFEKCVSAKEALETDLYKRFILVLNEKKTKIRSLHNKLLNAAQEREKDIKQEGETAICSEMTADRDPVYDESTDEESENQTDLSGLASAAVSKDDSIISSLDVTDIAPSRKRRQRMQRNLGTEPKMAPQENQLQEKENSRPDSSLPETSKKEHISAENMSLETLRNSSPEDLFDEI

Row | Compound | inhibition at 100 µM ([1]; 100 μM, read-out: In vitro % inhib hLigIII 100) | inhibition at 100 µM ([1]; 100 uM, Ø not defined (0 in Table 5A), read-out: % activity Inhibition hLigIII 100 uM) | inhibition of human DNA ligase III, in words ([1]; in vitro screen) | inhibition at 100 µM ([2]; 100 μM, read-out: In vitro % inhib hLigIV 100) | % activity Inhibition hLigIV 100 uM ([2]; 100 uM, Ø not defined (0 in Table 5A)) | inhibition at 100 µM [3] | EC50 [4] | % activity Inhibition hLigI 100 uM ([5]; 100 uM) | inhibition at 100 µM ([5]; 100 μM, read-out: In vitro % inhib hLigI 100) | Radiosensitizers: IC50 ratios HCT116 [6] | Radiosensitizers: IC50 ratios MCF10A [7] | % of inhibition @ 100 μM (Helen's data) hLigIII ([1]; 100 μM) | % of inhibition @ 100 μM (Helen's data) hLigIV ([2]; 100 μM) | radiosensitizer activity [8] | IC50 [9] | % of inhibition @ 100 μM (Helen's data) hLigI ([5]; 100 μM)
1 | N#Cc1cn(CCCCCCCc2[nH]c(=O)[nH]c(=O)c2C#N)c(=O)[nH]c1=O [Compound 209] | 71 ± 3% | 70.5 ± 2.6% | specific for DNA ligase III | 0% | Ø | 0% | > 100 µM | Ø | 0% |  |  |  |  |  |  | 
2 | CCc1ccc(NS(=O)(=O)c2ccc(Cl)s2)cc1 [Compound 105] |  |  |  |  |  |  |  |  |  | 1.3 | 1 | NI (NI- no inhibition) | NI (NI- no inhibition) | act as radiosensitizers | ~50 µM | NI (NI- no inhibition)
